Values after ≈ are worked out from the molar mass of the structure shown.
Columns and labels:
[1] = tested on: HepG2; experiment: Cytotoxicity against Homo sapiens (human) HepG2 cells after 48 hr by MTT assay; assay type: functional, cell-based; conditions: HepG2, 48 h
[2] = Cytotoxicity against Homo sapiens (human) HCT cells assessed as cell viability at 12.5 ug/ml after 48 hr by MTT assay; assay type: functional; conditions: read-out: Activity
[3] = tested on: HepG2; experiment: Cytotoxicity against Homo sapiens (human) HepG2 cells assessed as cell viability at 1.56 ug/ml after 48 hr by MTT assay; assay type: functional; conditions: HepG2, 48 h, read-out: Activity
[4] = Cytotoxicity against Homo sapiens (human) HCT cells assessed as cell viability at 25 ug/ml after 48 hr by MTT assay; assay type: functional; conditions: read-out: Activity
[5] = Cytotoxicity against Homo sapiens (human) HCT cells assessed as cell viability at 50 ug/ml after 48 hr by MTT assay; assay type: functional; conditions: read-out: Activity
[6] = Cytotoxicity against Homo sapiens (human) HCT cells after 48 hr by MTT assay; assay type: functional, cell-based
[7] = tested on: HepG2; experiment: Cytotoxicity against Homo sapiens (human) HepG2 cells assessed as cell viability at 12.5 ug/ml after 48 hr by MTT assay; assay type: functional; conditions: HepG2, 48 h, read-out: Activity
[8] = tested on: MCF7; experiment: Cytotoxicity against Homo sapiens (human) MCF7 cells assessed as cell viability at 50 ug/ml after 48 hr by MTT assay; assay type: functional; conditions: MCF7, 48 h, read-out: Activity
[9] = tested on: MCF7; experiment: Cytotoxicity against Homo sapiens (human) MCF7 cells assessed as cell viability at 6.25 ug/ml after 48 hr by MTT assay; assay type: functional; conditions: MCF7, 48 h, read-out: Activity
[10] = Cytotoxicity against Homo sapiens (human) HCT cells assessed as cell viability at 3.125 ug/ml after 48 hr by MTT assay; assay type: functional; conditions: read-out: Activity
[11] = tested on: MCF7; experiment: Cytotoxicity against Homo sapiens (human) MCF7 cells after 48 hr by MTT assay; assay type: functional, cell-based; conditions: MCF7, 48 h
[12] = tested on: MCF7; experiment: Cytotoxicity against Homo sapiens (human) MCF7 cells assessed as cell viability at 25 ug/ml after 48 hr by MTT assay; assay type: functional; conditions: MCF7, 48 h, read-out: Activity
[13] = Cytotoxicity against Homo sapiens (human) HCT cells assessed as cell viability at 1.56 ug/ml after 48 hr by MTT assay; assay type: functional; conditions: read-out: Activity
[14] = tested on: HepG2; experiment: Cytotoxicity against Homo sapiens (human) HepG2 cells assessed as cell viability at 50 ug/ml after 48 hr by MTT assay; assay type: functional; conditions: HepG2, 48 h, read-out: Activity
[15] = tested on: MCF7; experiment: Cytotoxicity against Homo sapiens (human) MCF7 cells assessed as cell viability at 3.125 ug/ml after 48 hr by MTT assay; assay type: functional; conditions: MCF7, 48 h, read-out: Activity
[16] = tested on: HepG2; experiment: Cytotoxicity against Homo sapiens (human) HepG2 cells assessed as cell viability at 3.125 ug/ml after 48 hr by MTT assay; assay type: functional; conditions: HepG2, 48 h, read-out: Activity
[17] = tested on: MCF7; experiment: Cytotoxicity against Homo sapiens (human) MCF7 cells assessed as cell viability at 12.5 ug/ml after 48 hr by MTT assay; assay type: functional; conditions: MCF7, 48 h, read-out: Activity
[18] = tested on: HepG2; experiment: Cytotoxicity against Homo sapiens (human) HepG2 cells assessed as cell viability at 25 ug/ml after 48 hr by MTT assay; assay type: functional; conditions: HepG2, 48 h, read-out: Activity
[19] = tested on: MCF7; experiment: Cytotoxicity against Homo sapiens (human) MCF7 cells assessed as cell viability at 1.56 ug/ml after 48 hr by MTT assay; assay type: functional; conditions: MCF7, 48 h, read-out: Activity
[20] = tested on: HepG2; experiment: Cytotoxicity against Homo sapiens (human) HepG2 cells assessed as cell viability at 6.25 ug/ml after 48 hr by MTT assay; assay type: functional; conditions: HepG2, 48 h, read-out: Activity
[21] = Cytotoxicity against Homo sapiens (human) HCT cells assessed as cell viability at 6.25 ug/ml after 48 hr by MTT assay; assay type: functional; conditions: read-out: Activity

| SMILES | IC50 [1] | viability at 12.5 µg/mL [2] | viability at 1.56 µg/mL [3] | viability at 25 µg/mL [4] | viability at 50 µg/mL [5] | IC50 [6] | viability at 12.5 µg/mL [7] | viability at 50 µg/mL [8] | viability at 6.25 µg/mL [9] | viability at 3.125 µg/mL [10] | IC50 [11] | viability at 25 µg/mL [12] | viability at 1.56 µg/mL [13] | viability at 50 µg/mL [14] | viability at 3.125 µg/mL [15] | viability at 3.125 µg/mL [16] | viability at 12.5 µg/mL [17] | viability at 25 µg/mL [18] | viability at 1.56 µg/mL [19] | viability at 6.25 µg/mL [20] | other results |
| --- | --- | --- | --- | --- | --- | --- | --- | --- | --- | --- | --- | --- | --- | --- | --- | --- | --- | --- | --- | --- | --- |
| N#CC1=C(N)Oc2c(ccc3ccc(/C=C/c4ccc(F)cc4)nc23)C1c1ccc(Cl)cc1 (stereo unspecified) | > 50 µg/mL | 86.9% | 100% | 62.5% | 41.3% | 43.8 µg/mL (≈ 96.5 µM) | 84.6% | 28.5% | 91.8% | 98.8% | 38.6 µg/mL (≈ 85 µM) | 79.4% | 100% | 56.4% | 97.9% | 98.9% | 86.7% | 78.3% | 99.3% | 96.2% | viability at 6.25 µg/mL [21]: 95.2% |
| N#CC1=C(N)Oc2c(ccc3ccc(/C=C/c4ccc(F)cc4)nc23)C1c1ccc(Br)cc1 (stereo unspecified) | > 50 µg/mL | 91.1% | 100% | 83.4% | 57.6% | > 50 µg/mL | 83.4% | 39.5% | 91.8% | 98.6% | 42.5 µg/mL (≈ 85.3 µM) | 67.8% | 100% | 63.4% | 96.9% | 98.9% | 80.2% | 74.8% | 100% | 97.2% | viability at 6.25 µg/mL [21]: 94.8% |
| CCOC(=O)C1=C(N)Oc2c(ccc3ccc(/C=C/c4ccc(Cl)cc4)nc23)C1c1ccc(Cl)cc1 (stereo unspecified) | 7.9 µg/mL (≈ 15.3 µM) | 54.3% | 81.9% | 20.4% | 14.1% | 13 µg/mL (≈ 25.1 µM) | 45.6% | 27.2% | 47.2% | 69.3% | 5.5 µg/mL (≈ 10.6 µM) | 34.6% | 78.6% | 28.1% | 67.8% | 65.3% | 41.6% | 37.9% | 78.1% | 53% | viability at 6.25 µg/mL [21]: 64.1% |
| CCOC(=O)C1=C(N)Oc2c(ccc3ccc(/C=C/c4ccc(Cl)cc4)nc23)C1c1ccc(Br)cc1 (stereo unspecified) | 28.6 µg/mL (≈ 50.9 µM) | 61.3% | 89.4% | 45.8% | 30.7% | 20.4 µg/mL (≈ 36.3 µM) | 61.9% | 29.7% | 63.5% | 74.3% | 10.3 µg/mL (≈ 18.3 µM) | 37.9% | 82.9% | 39.8% | 76% | 76.3% | 45.6% | 53.4% | 80.9% | 69.7% | viability at 6.25 µg/mL [21]: 70.4% |
| CCOC(=O)C1=C(N)Oc2c(ccc3ccc(/C=C/c4ccc(Br)cc4)nc23)C1c1ccc(Br)cc1 (stereo unspecified) | 6.1 µg/mL (≈ 10.1 µM) | 52.2% | 79.6% | 31.4% | 26% | 12.8 µg/mL (≈ 21.1 µM) | 42.2% | 13% | 31.6% | 76.6% | 2.4 µg/mL (≈ 3.96 µM) | 17.9% | 86% | 23.4% | 45.5% | 61% | 23.8% | 36.1% | 62.3% | 48.6% | viability at 6.25 µg/mL [21]: 62.8% |
| CCOC(=O)C1=C(N)Oc2c(ccc3ccc(/C=C/c4ccc(F)cc4)nc23)C1c1ccc(Br)cc1 (stereo unspecified) | 37.1 µg/mL (≈ 68 µM) | 78.7% | 97.1% | 53.7% | 17.4% | 26.1 µg/mL (≈ 47.9 µM) | 76.4% | 37.6% | 85.5% | 98.5% | 38.4 µg/mL (≈ 70.4 µM) | 67% | 100% | 34.6% | 93.9% | 94.6% | 74.6% | 62.9% | 99.3% | 83.3% | viability at 6.25 µg/mL [21]: 84.9% |
